Key:
[1] = test system: weeds; assay: germination-preventing action in treated soil; type: in vivo; conditions: minimum amounts of 4 g per square meter of soil
[2] = cited from earlier work

## C=CCN=C=S [allyl isothiocyanate, Allyl isothiocyanate]
[1]
  germination-preventing action: marked germination-preventing action
[2]
  vapour pressure at 25° C.: 5 mmHg

## CN=C=S [methyl isothiocyanate, reference compound]
[2]
  vapour pressure at 25° C.: 19 mmHg
